Reference: patent US8987195B2 (priority 2012, dated 2015)
Read-outs that look alike come from different tables or passages of the source.

Experiments:
HCV genotype 1b replicon = experiment: HCV replicon assay, genotype 1b replicon EC50; format: cell-based, Hepatitis C virus; settings: Hepatitis C virus, read-out: EC50 [gt-1b]
How it was run: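 Stable neomycin phosphotransferase-encoding replicon cell lines, kept under G418 selection beforehand, were plated with a compound dilution series without G418 and incubated 24-48 hours. Replicon RNA was then quantified, or luciferase activity read. EC50 was calculated as percent of DMSO control by four-parameter fit.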

[1] = biological target: HCV NS3/4A protease genotype 1b (Hepatitis C virus genotype 1b, UniProt P26663); experiment: HCV NS3/4A protease time-resolved fluorescence (TRF) assay, Ki against genotype 1b; format: biochemical
How it was run: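 Ki values come from IC50 fits corrected for substrate concentration and KM. The time-resolved fluorescence protease reaction used 25 nM peptide substrate, 2.5 h, room temperature, pH 7.5 HEPES buffer, after 30 min enzyme–inhibitor preincubation.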

[2] = IC50 [gt-1b] (nM), NS3/4A genotype 1b, enzyme 0.2 nM
[3] = IC50 [gt-1b], NS3/4A protease TRF assay, genotype 1b enzyme 0.2 nM

HCV NS3/4A protease genotype 1b, sequence (P26663 1027-1657): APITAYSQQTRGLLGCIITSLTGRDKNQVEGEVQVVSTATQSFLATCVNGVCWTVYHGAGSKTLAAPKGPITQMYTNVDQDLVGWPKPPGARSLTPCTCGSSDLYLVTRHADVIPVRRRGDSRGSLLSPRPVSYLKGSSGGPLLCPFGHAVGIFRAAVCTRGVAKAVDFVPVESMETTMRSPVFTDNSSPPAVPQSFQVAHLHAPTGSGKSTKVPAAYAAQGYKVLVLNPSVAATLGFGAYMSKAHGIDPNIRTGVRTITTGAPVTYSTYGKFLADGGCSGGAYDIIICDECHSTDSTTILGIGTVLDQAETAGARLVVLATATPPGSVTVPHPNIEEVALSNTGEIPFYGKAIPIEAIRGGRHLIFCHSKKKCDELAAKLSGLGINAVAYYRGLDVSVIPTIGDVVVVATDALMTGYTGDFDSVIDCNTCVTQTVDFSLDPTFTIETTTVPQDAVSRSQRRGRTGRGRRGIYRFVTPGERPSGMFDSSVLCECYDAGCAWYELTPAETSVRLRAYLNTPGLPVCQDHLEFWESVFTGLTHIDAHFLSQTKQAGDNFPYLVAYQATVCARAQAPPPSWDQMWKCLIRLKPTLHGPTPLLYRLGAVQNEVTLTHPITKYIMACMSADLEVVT
HCV NS3/4A protease genotype 1b, sequence (P26663 1658-1711): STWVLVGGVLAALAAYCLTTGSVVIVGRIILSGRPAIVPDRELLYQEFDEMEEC

SMILES	EC50 (HCV genotype 1b replicon; genotype 1b replicon) [nM]	IC50 [1, 2] [nM]	EC50 (HCV genotype 1b replicon; HCV replicon, genotype 1b) [nM]	IC50 [1, 3] [nM]	further results
COc1ccc2c3c(c(C4CC4)nc2c1)O[C@]1(CC3)C[C@H]2C(=O)N[C@]3(C(=O)NS(=O)(=O)C4(C)CC4)C[C@H]3/C=C\CCCCC[C@H](NC(=O)NC3CCCC3)C(=O)N2C1 [Example 133, (2R,6S,12Z,13aS,14aR,16aS)-6-[(cyclopentylcarbamoyl)amino]-5′-cyclopropyl-8′-methoxy-N-[(1-methylcyclopropyl)sulfonyl]-5,16-dioxo-1,1′,2′,6,7,8,9,10,11,13a,14,15,16,16a-tetradecahydrospiro[cyclopropa[e]pyrrolo[1,2-a][1,4]diazacyclopentadecine-2,3′-pyrano[2,3-c]quinoline]-14a(5H)-carboxamide]	17.4	0.007	–	–	–
COc1ccc2nc(C(C)C)c3c(c2c1)CC[C@]1(C[C@H]2C(=O)N[C@]4(C(=O)NS(=O)(=O)C5(C)CC5)C[C@H]4/C=C\CCCCC[C@H](NC(=O)OC4CCCC4)C(=O)N2C1)O3 [Example 155, cyclopentyl [(2R,6S,12Z,13aS,14aR,16aS)-9′-methoxy-14a-{[(1-methylcyclopropyl)sulfonyl]carbamoyl}-5,16-dioxo-5′-(propan-2-yl)-1,1′,2′,5,6,7,8,9,10,11,13a,14,14a,15,16,16a-hexadecahydrospiro[cyclopropa[e]pyrrolo[1,2-a][1,4]diazacyclopentadecine-2,3′-pyrano[2,3-c]quinolin]-6-yl]carbamate]	1.17	0.015	–	–	–
COc1ccc2nc(C)c3c(c2n1)CC[C@]1(C[C@H]2C(=O)N[C@]4(C(=O)NS(=O)(=O)C5(C)CC5)C[C@H]4/C=C\CCCCC[C@H](NC(=O)OC(C)(C)C(F)(F)F)C(=O)N2C1)O3 [Example 318, 1,1,1-trifluoro-2-methylpropan-2-yl [(2R,6S,12Z,13aS,14aR,16aS)-2′-methoxy-6′-methyl-14a-{[(1-methylcyclopropyl)sulfonyl]carbamoyl}-5,16-dioxo-1,5,6,7,8,9,9′,10,10′,11,13a,14,14a,15,16,16a-hexadecahydrospiro[cyclopropa[e]pyrrolo[1,2-a][1,4]diazacyclopentadecine-2,8′-pyrano[2,3-c][1,5]naphthyridin]-6-yl]carbamate]	4.99	0.013	–	–	–
COc1ccc2nc(C(F)(F)F)c3c(c2c1)CC[C@]1(C[C@H]2C(=O)N[C@]4(C(=O)NS(=O)(=O)C5(C)CC5)C[C@H]4/C=C\CCCCC[C@H](NC(=O)OCC(F)F)C(=O)N2C1)O3 [Example 499, 2,2-difluoroethyl [(2R,6S,12Z,13aS,14aR,16aS)-9′-methoxy-14a-{[(1-methylcyclopropyl)sulfonyl]carbamoyl}-5,16-dioxo-5′-(trifluoromethyl)-1,1′,2′,5,6,7,8,9,10,11,13a,14,14a,15,16,16a-hexadecahydrospiro[cyclopropa[e]pyrrolo[1,2-a][1,4]diazacyclopentadecine-2,3′-pyrano[2,3-c]quinolin]-6-yl]carbamate]	–	–	–	–	EC50 (HCV genotype 1b replicon; HCV replicon, genotype 1b, K+ salt): 0.433 nM; IC50 ([1]; IC50 [gt-1b], NS3/4A protease TRF assay, genotype 1b enzyme 0.2 nM, K+ salt): 0.004 nM
Cc1nc2ccccc2c2c1O[C@]1(CC2)C[C@H]2C(=O)N[C@]3(C(=O)NS(=O)(=O)C4(C)CC4)C[C@H]3/C=C\CCCCC[C@H](NC(=O)N3CCCC3)C(=O)N2C1 [Example 61, (2R,6S,12Z,13aS,14aR,16aS)-5′-methyl-N-[(1-methylcyclopropyl)sulfonyl]-5,16-dioxo-6-[(pyrrolidin-1-ylcarbonyl)amino]-1,1′,2′,6,7,8,9,10,11,13a,14,15,16,16a-tetradecahydrospiro[cyclopropa[e]pyrrolo[1,2-a][1,4]diazacyclopentadecine-2,3′-pyrano[2,3-c]quinoline]-14a(5H)-carboxamide]	12.2	0.015	–	–	–
COc1ccc2nc(C(F)F)c3c(c2c1Cl)CC[C@]1(C[C@H]2C(=O)N[C@]4(C(=O)NS(=O)(=O)C5(C)CC5)C[C@H]4/C=C\CCCCC[C@H](NC(=O)OC(C)(C)C)C(=O)N2C1)O3 [Example 28, tert-Butyl [(2R,6S,12Z,13aS,14aR,16aS)-10′-chloro-5′-(difluoromethyl)-9′-methoxy-14a-{[(1-methylcyclopropyl)sulfonyl]carbamoyl}-5,16-dioxo-1,1′,2′,5,6,7,8,9,10,11,13a,14,14a,15,16,16a-hexadecahydrospiro[cyclopropa[e]pyrrolo[1,2-a][1,4]diazacyclopentadecine-2,3′-pyrano[2,3-c]quinolin]-6-yl]carbamate]	14.7	0.016	–	–	–
COc1cccc(N[C@H]2CCCCC/C=C\[C@@H]3C[C@@]3(C(=O)NS(=O)(=O)C3(C)CC3)NC(=O)[C@@H]3C[C@]4(CCc5c(c(C)nc6ccccc56)O4)CN3C2=O)n1 [Example 415, (2R,6S,12Z,13aS,14aR,16aS)-6-[(6-methoxypyridin-2-yl)amino]-5′-methyl-N-[(1-methylcyclopropyl)sulfonyl]-5,16-dioxo-1,1′,2′,6,7,8,9,10,11,13a,14,15,16,16a-tetradecahydrospiro[cyclopropa[e]pyrrolo[1,2-a][1,4]diazacyclopentadecine-2,3′-pyrano[2,3-c]quinoline]-14a(5H)-carboxamide]	–	–	16.3	0.118	–
Cc1nc2cc(Cl)ccc2c2c1O[C@]1(CC2)C[C@H]2C(=O)N[C@]3(C(=O)NS(=O)(=O)C4(C)CC4)C[C@H]3/C=C\CCCCC[C@H](NC(=O)OC(C)(C)C)C(=O)N2C1 [Example 233, tert-butyl [(2R,6S,12Z,13aS,14aR,16aS)-8′-chloro-5′-methyl-14a-{[(1-methylcyclopropyl)sulfonyl]carbamoyl}-5,16-dioxo-1,1′,2′,5,6,7,8,9,10,11,13a,14,14a,15,16,16a-hexadecahydrospiro[cyclopropa[e]pyrrolo[1,2-a][1,4]diazacyclopentadecine-2,3′-pyrano[2,3-c]quinolin]-6-yl]carbamate]	1.51	0.051	–	–	–
Cc1nc2ccccc2c2c1O[C@]1(CC2)C[C@H]2C(=O)N[C@]3(C(=O)NS(=O)(=O)C4(C)CC4)C[C@H]3/C=C\CCCCC[C@H](Nc3cc(C(F)(F)F)ccn3)C(=O)N2C1 [Example 414, (2R,6S,12Z,13aS,14aR,16aS)-5′-methyl-N-[(1-methylcyclopropyl)sulfonyl]-5,16-dioxo-6-{[4-(trifluoromethyl)pyridin-2-yl]amino}-1,1′,2′,6,7,8,9,10,11,13a,14,15,16,16a-tetradecahydrospiro[cyclopropa[e]pyrrolo[1,2-a][1,4]diazacyclopentadecine-2,3′-pyrano[2,3-c]quinoline]-14a(5H)-carboxamide]	–	–	5.16	0.047	–
CCc1nc2ccc(OC)cc2c2c1O[C@]1(C[C@H]2F)C[C@H]2C(=O)N[C@]3(C(=O)NS(=O)(=O)C4(C)CC4)C[C@H]3/C=C\CCCCC[C@H](NC(=O)OC(C)(C)C)C(=O)N2C1 [Example 439, tert-butyl [(1′R,2S,6S,12Z,13aS,14aR,16aS)-5′-ethyl-1′-fluoro-9′-methoxy-14a-{[(1-methylcyclopropyl)sulfonyl]carbamoyl}-5,16-dioxo-1,1′,2′,5,6,7,8,9,10,11,13a,14,14a,15,16,16a-hexadecahydrospiro[cyclopropa[e]pyrrolo[1,2-a][1,4]diazacyclopentadecine-2,3′-pyrano[2,3-c]quinolin]-6-yl]carbamate]	–	–	1.55	0.009	–
